Laboratory results taken from US11364231B2, “Methods of treating radiation induced gastrointestinal syndrome (RIGS) and related disease states using YEL002/BCN057” (priority 2017, dated 2022).
Values joined by “and” are separate entries in the source; they are usually repeats but may differ in a detail not shown here. Equal entries are not always repeated. “Also recorded” adds a separate entry of the source.

Tests used:
[1] = tested on: intestinal crypt organoids from Lgr5/EGFP-IRES-Cre-ERT2 knock in mice; assay: Ex vivo irradiated mouse intestinal crypt organoids; assay type: cell-based
Source text: To analyze the effect of BCN057 on ISC population, an ex vivo primary intestinal culture system exposed to graded doses of irradiation was developed. Intestinal crypt isolated from Lgr5/EGFP-IRES-Cre-ERT2 knock in mice to allow the visualization of the ISCs. At a dose level of 8 Gy most of the Lgr5+ve ISCs had disappeared within 48 hrs resulting significant loss of budding crypt with changes in existing crypt morphology indicating inhibition of ISC growth and differentiation in response to radiation exposure. […] A representative microscopic image of effect of BCN057 on budding crypt having Lgr5+ve ISCs (GFP+ve cells indicated with arrow) is shown in FIG. 10.
Small intestine from Lgr5-GFP mice, or their littermates control mice was used for crypt isolation and development of ex vivo organoid culture. The tissue was scraped for removing villi and chopped into˜5 mm pieces. Then tissue was washed with cold PBS, and incubated in dissociation buffer for 20 mins in rotor at room temperature. The tissue fragments were suspended vigorously with a 10-ml pipette in cold 0.1% BSA in PBS, yielding supernatants enriched in epithelial cells. […] The number of organoids per well was counted on microscopic images. […] Total number of crypt structures and number of budding crypts were counted and expressed as a ratio of budding crypts/total crypt structure.

[2] = tested on: intestinal epithelial integrity; assay: FITC-dextran permeability assay; assay type: in vivo, mice
Experimental: Since dextran is unable to cross the GI epithelia unless it is compromised, dextran in the blood is a good indicator of epithelial damage. Blood FITC-dextran levels were measured at 4 h after gavage.
At day 5 post mice exposed to ABI and/or treated with BCN057 were gavaged with 0.6 mg g-1 body weight of a FITC-dextran solution ([…] size, Sigma). In all, four hrs. after gavage mice were killed and serum was obtained with cardiac puncture. Samples were measured in a 96-well plate using a Flexstation ii 384 multiwell fluorometer (Molecular Devices). A standard curve was constructed using mouse serum having increasing amounts of FITC-dextran to determine the serum levels of FITC-dextran in different treatment groups.

[3] = Solubility in aqueous formulations; assay type: physicochemical
Experimental: In another embodiment formulation for intravenous, subcutaneous and oral delivery of therapeutic levels of Yel002/BCN057 were developed comprising 30 wt % Captisol (SBE-beta-CD) and 100 mM MSA at pH 4.1 or higher (adjusted with 1.0 N NaOH).

[4] = tested on: nuclear β-catenin in crypt epithelial cells; assay: β-Catenin immunohistochemistry of mouse jejunum; assay type: in vivo, mice; details: BCN057 at 24 hrs post AIR vs irradiated untreated animals
Experimental: The effect of BCN057 was analyzed in crypt epithelial β-catenin activation. […] Nuclear β-catenin positive cells were primarily observed in crypt bottom which is also location for ISCs indicating activation of WNT-β-catenin signaling in ISCs.
β-Catenin immunohistochemistry was performed in paraffin-embedded sections of mouse jejunum (56). Before immunostaining antigen retrieval was performed by heating slides in […] at 100° C. for 20 min in a microwave oven at 500 W using antigen retrieval solution (10 mM Tris and 1 mM EDTA, pH 9.0). Non-specific antibody binding was blocked for 20 min. by incubation with 0.05% w/v BSA in PBS. Tissue was stained using the anti-β-catenin antibody (1:100 dilution; BD Transduction Laboratories, Franklin Lakes, N.J.; #610154) at room temperature for 2 hr followed by staining with horseradish peroxidase-conjugated Anti-Mouse Antibody (Dako, Denmark) at room temperature for 1 hr. Peroxidase activity was detected by adding DAB substrate. Nucleus was counter-stained with haematoxylin (blue). β-Catenin-positive nucleus (stained dark brown) was calculated from 15 crypts per field, 5 fields per mice.

[5] = tested on: C57B16 mice exposed to AIR; assay: Survival after lethal abdominal irradiation (AIR), RIGS model; details: for survival: BCN057 s.c. 150 mg/kg from 24 hrs post AIR, single dose/day up to day 8, n=25/group, vehicle/untreated died within 15 days
Experimental: FIG. 1A. […] A 3 cm area of the mice containing the GI was irradiated (irradiation field), thus shielding the upper thorax, head and neck as well as lower and upper extremities, protecting a significant portion of the bone marrow, thus inducing predominantly RIGS. Mice exposed to AIR were treated with BCN057 (s.c.) (150 mg/kg of body weight) at 24 hrs post irradiation and continued up to day 8 (single dose/day).
To examine the radio-mitigating role of BCN057 against RIGS, C57B16 mice were exposed to graded doses of abdominal irradiation (AIR) (14-15Gy) after shielding the thorax, head and neck, and extremities, thus protecting the bone marrow.
Male C57B16/6J (Jackson laboratories) mice (five to six weeks old) were maintained ad libitum and all studies were performed under the guidelines and protocols of the Institutional Animal Care and Use Committee of the University of Kansas medical center.
AIR was performed on anaesthetized mice (with a continuous flow 1.5 ml min-1 of 1.5% isoflurane in pure oxygen) using the small animal radiation research platform (SARRP, XStrahl, Surrey, UK). A 2 cm area of the mice containing the GI was irradiated (FIG. 2), thus shielding the upper thorax, head and neck as well as lower and upper extremities, protecting a significant portion of the bone marrow, thus inducing predominantly RIGS. A radiation dose of 14-15 Gy was delivered to the midline of the GI, ensuring homogeneous delivery by performing half of the total irradiation from the anterior-posterior direction and the second half from the posterior-anterior direction. The total irradiation time to deliver the intended dose was calculated with respect to dose rate, radiation field size and fractional depth dose to ensure accurate radiation dosimetry.

## COc1ccc2cc(-c3nc4ccc(C)cn4c3NCc3ccco3)c(=O)[nH]c2c1 [BCN057, 3-(3((furan-2-ylmethyl)ammo)-6-methylimidazo[1,2-a]pyridine-2-yl)-6-methoxyquinolin-2(1H)-one]
[1]; 8 Gy, BCN057 10 uM at 1 hr after irradiation
  organoid growth / ratio of budding crypt to total crypt: restored the number of budding crypts to un-irradiated levels; also recorded: improved the organoid growth
[1]; 8Gy, BCN057 treated vs irradiated control
  Lgr5+ve ISCs in organoids: recused Lgr5+ve ISCs; also recorded: increases the presence of Lgr5+ve cells
[2]; irradiated (AIR) mice treated with BCN057 vs irradiated untreated control, 4 h after gavage
  serum FITC-dextran level: significantly reduced; also recorded: lower serum dextran level
[2]; unirradiated BCN057 treated mice vs irradiated control
  serum dextran level: lower serum dextran level
[3]; 30 wt % Captisol (SBE-beta-CD) and 100 mM MSA, at up to pH 4.1 or higher
  solubility: excellent solubility
[3]; physiologically compatible pHs, 100 mM MSA/10% PVP, 100 mM MSA/2% benzyl alcohol/2% NMP, 100 mM MSA/10% ethanol/1% Poloxamer 188
  solubility in aqueous solution: solubalized
[4]
  nuclear β-catenin positive cells: significant increase; also recorded: more nuclear β-catenin staining
[5]; 14-15 Gy AIR, BCN057 at 24 hrs post AIR
  duration of survival post AIR: > 30 days and > 60 days
[5]; 14Gy AIR
  survival: 80%
[5]; 15Gy AIR
  survival: 60%
[5]; after AIR/PBI, observed up to day 30-60 post exposure
  symptoms / clinical conditions in surviving treated mice: without showing any symptoms of RIGS; also recorded: did not develop any clinical conditions; also recorded: without any symptom of gastroenteritis or any other health complications
[5]; normal (un-irradiated) mice
  toxicity to normal mice: do not confer any toxicity
